The target in assay [1] is T1, Keap1 Kelch domain (321-609) / TAMRA-labeled 16mer NRF2 peptide (ETGE motif) (Homo sapiens, UniProt Q14145).
T1 construct: the Kelch domain (321-609) of Keap1 is used
Kind of assay: NRF2-Keap1 FP Assay (Keap1 Kelch fluorescence polarization). The format is binding. The note with it: 20 nM Keap1 (321-609), 8 nM Tamra labeled peptide. In short, it runs like this: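 Compound dilutions (3-fold) were incubated 1 hr at room temperature with 20 nM Keap1 Kelch (321-609) and 8 nM TAMRA-labeled ETGE 16mer peptide. Buffer was 50 mM Tris pH 8.0, 100 mM NaCl, 5 mM MgCl2, 1 mM DTT, 2 mM CHAPS, 0.005% BSA. Fluorescence polarization (mP) was normalized to controls and fitted with a four-parameter equation to give pIC50.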
In general terms: Fluorescence polarisation rises when a labelled molecule tumbles more slowly, as on binding a larger partner.

The target in assay [2] is T2, full length Keap1 protein / full length NRF2 protein (Homo sapiens, UniProt Q14145).
T2 construct: full length NRF2 protein and full length Keap1 protein (Keap1 exists a dimer) are used; His
Kind of assay: NRF2-Keap1 TR-FRET Assay. The format is binding. The note with it: 25 nM Keap1-FlagHis and 50 nM biotin-NRF2 added. The essentials: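 Full-length Keap1-FlagHis preincubated with compound 2.25 h at 37 °C, then biotin-NRF2 added for 1.25 h at 4 °C, in Tris pH 8.0 with MgCl2, NaCl, BSA, DTT, CHAPS. TR-FRET 665/615 nm ratio normalised to with- and without-protein 1% DMSO controls; pIC50 from four-parameter fit.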
(In TR-FRET formats the signal depends on donor and acceptor labels being close together.)

T1 sequence (Q14145 321-609): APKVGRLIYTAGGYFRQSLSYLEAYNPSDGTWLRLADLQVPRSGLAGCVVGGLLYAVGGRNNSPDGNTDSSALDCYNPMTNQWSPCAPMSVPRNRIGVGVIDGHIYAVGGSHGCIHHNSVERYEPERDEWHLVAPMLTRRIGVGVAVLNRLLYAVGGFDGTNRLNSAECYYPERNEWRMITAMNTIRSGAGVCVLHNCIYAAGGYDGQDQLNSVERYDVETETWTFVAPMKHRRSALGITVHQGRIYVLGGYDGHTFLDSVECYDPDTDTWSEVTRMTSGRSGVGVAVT
T2 sequence (Q14145 whole entry): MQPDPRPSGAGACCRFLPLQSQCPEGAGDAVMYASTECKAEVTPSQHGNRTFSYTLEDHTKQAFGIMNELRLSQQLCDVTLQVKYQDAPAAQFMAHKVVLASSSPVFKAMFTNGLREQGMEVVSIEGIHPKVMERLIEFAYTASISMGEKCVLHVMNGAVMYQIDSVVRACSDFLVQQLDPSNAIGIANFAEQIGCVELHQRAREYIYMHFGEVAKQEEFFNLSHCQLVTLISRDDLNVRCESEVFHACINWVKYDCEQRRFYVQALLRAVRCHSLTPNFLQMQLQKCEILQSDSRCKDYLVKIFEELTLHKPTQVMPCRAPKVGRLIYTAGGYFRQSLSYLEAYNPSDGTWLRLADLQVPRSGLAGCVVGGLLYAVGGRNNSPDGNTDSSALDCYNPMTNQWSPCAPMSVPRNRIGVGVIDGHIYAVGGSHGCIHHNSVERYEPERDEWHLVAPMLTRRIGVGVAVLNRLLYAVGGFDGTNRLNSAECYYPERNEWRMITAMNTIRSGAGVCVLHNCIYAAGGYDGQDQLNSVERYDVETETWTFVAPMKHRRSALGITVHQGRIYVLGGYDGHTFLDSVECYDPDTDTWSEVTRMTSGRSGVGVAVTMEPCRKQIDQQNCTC

By IC50 is commonly meant the concentration that gives 50% inhibition. High values mean weaker potency in that assay, low ones greater potency in that assay. As for `Cn1cc([C@H]2C[C@@H]2c2c(C(=O)O)cnn2-c2cccc(-c3cccc(OCc4ccc(-c5ccccc5)cc4)c3)c2)nn1` (racemic) [Example 237, 1-(3′-([1,1′-Biphenyl]-4-ylmethoxy)-[1,1′-biphenyl]-3-yl)-5-((1,2-trans)-2-(1-methyl-1H-1,2,3-triazol-4-yl)cyclopropyl)-1H-pyrazole-4-carboxylic Acid], the IC50 is 100 to 1000 nM in assay [1] and 1000 to 10000 nM in assay [2].

In the case of `Cn1cc([C@H]2C[C@@H]2c2c(C(=O)O)cnn2-c2cccc(-c3cccc(OCc4cccc(-c5ccccc5)c4)c3)c2)nn1` (racemic) [Example 238, 1-(3′-([1,1′-Biphenyl]-3-ylmethoxy)-[1,1′-biphenyl]-3-yl)-5-((1,2- trans)-2-(1-methyl-1H-1,2,3-triazol-4-yl)cyclopropyl)-1H-pyrazole-4-carboxylic acid], the figures for the IC50 in assay [1] and in assay [2] were 100 to 1000 nM and 1000 to 10000 nM, respectively.

Regarding `CC(Oc1cccc(-c2cccc(-n3ncc(C(=O)O)c3[C@H]3C[C@@H]3c3cn(C)nn3)c2)c1)c1cccc(-c2ccccc2)c1` (mixture of isomers) [Example 239, 1-(3′-(1-([1,1′-Biphenyl]-3-yl)ethoxy)-[1,1′-biphenyl]-3-yl)-5-((1,2-trans)-2-(1-methyl-1H-1,2,3-triazol-4-yl)cyclopropyl)-1H-pyrazole-4-carboxylic Acid], the IC50 in assay [1] and in assay [2] was 100 to 1000 nM in each case.

As for `CC(Oc1cccc(-c2cccc(-n3ncc(C(=O)O)c3[C@H]3C[C@@H]3c3cn(C)nn3)c2)c1)c1ccc(-c2ccccc2)cc1` (mixture of isomers) [Example 240, 1-(3′-(1-([1,1′-Biphenyl]-4-yl)ethoxy)-[1,1′-biphenyl]-3-yl)-5-((1,2- trans)-2-(1-methyl-1H-1,2,3-triazol-4-yl)cyclopropyl)-1H-pyrazole-4-carboxylic acid], the values for the IC50 in assay [1] and in assay [2] were 100 to 1000 nM and 1000 to 10000 nM, respectively.

As to `Cn1cc([C@@H]2C[C@H]2c2c(C(=O)O)cnn2-c2cccc(-c3cccc(OCCC4CCCCC4)c3)c2)nn1` (racemic) [Example 245, 1-(3′-(2-cyclohexylethoxy)-[1,1′-biphenyl]-3-yl)-5-(trans-2-(1-methyl-1H-1,2,3-triazol-4-yl)cyclopropyl)-1H-pyrazole-4-carboxylic Acid], the values for the IC50 in assay [1] and in assay [2] were 10 to 100 nM and 100 to 1000 nM, respectively.

Regarding `Cn1cc([C@@H]2C[C@H]2c2c(C(=O)O)cnn2-c2cccc(-c3cncc(OCC4CCCCC4)c3)c2)nn1` (racemic) [Example 246, 1-(3-(5-(Cyclohexylmethoxy)pyridin-3-yl)phenyl)-5-(trans-2-(1-methyl-1H-1,2,3-triazol-4-yl)cyclopropyl)-1H-pyrazole-4-carboxylic Acid], the IC50 in assay [1] lay within 100 to 1000 nM; in assay [2], 1000 to 10000 nM.

In the case of `CCC[C@@H]1CCCCN1C(=O)c1cccc(-c2cc(C)cc(-n3ncc(C(=O)O)c3[C@@H]3C[C@H]3c3cn(C)nn3)c2)c1` (single isomer, unassigned) [Example 155], the IC50 in assay [1] and in assay [2] was 10 to 100 nM in each case.

For `CC(Oc1cccc(-c2cccc(-n3ncc(C(=O)O)c3[C@H]3C[C@@H]3c3cn(C)nn3)c2)c1)C1CCCCC1` (single isomer, unassigned) [Example 191], the IC50 in assay [1] and in assay [2] was 100 to 1000 nM in each case.

For the compound `Cn1cc([C@H]2C[C@@H]2c2c(C(=O)O)cnn2-c2cccc(-c3cccc(-n4ncc5c4C(C)(C)CC5)c3)c2)nn1` (stereo in doubt) [Example 208, 1-(3′-(6,6-Dimethyl-5,6-dihydrocyclopenta[c]pyrazol-1(4H)-yl)-[1,1′-biphenyl]-3-yl)-5-((1S,2S)-2-(1-methyl-1H-1,2,3-triazol-4-yl)cyclopropyl)-1H-pyrazole-4-carboxylic Acid], the IC50 in assay [1] and in assay [2] was 10 to 100 nM throughout.

On to `O=C(O)c1cnn(-c2cccc(-c3cccc(C(=O)N(CC4CCCC4)CC4CC4)c3F)c2)c1C1CC1` [Example 14, 1-(3-{3-[(Cyclopentylmethyl)(cyclopropylmethyl)carbamoyl]-2-fluorophenyl}phenyl)-5-cyclopropyl-1H-pyrazole-4-carboxylic Acid], for which the figures for the half-maximal inhibitory concentration (IC50) in assay [1] and in assay [2] were 10 to 100 nM and 100 to 1000 nM, respectively.

In the case of `CCCC1CCCCN1C(=O)c1cccc(-c2cccc(-n3ncc(C(=O)O)c3C3CC3)c2)c1F` (centres unmarked) [Example 17, 5-Cyclopropyl-1-{3-[2-fluoro-3-(2-propylpiperidine-1-carbonyl)phenyl]phenyl}-1H-pyrazole-4-carboxylic Acid], the IC50 lay within 10 to 100 nM in assay [1] and 100 to 1000 nM in assay [2].

Turning to `C[C@@H]1CCC[C@H](C)N1C(=O)c1cccc(-c2cccc(-n3ncc(C(=O)O)c3C3CC3)c2)c1F` [Example 21, 5-Cyclopropyl-1-(3-{3-[(2R,6S)-2,6-dimethylpiperidine-1-carbonyl]-2-fluorophenyl}phenyl)-1H-pyrazole-4-carboxylic Acid], the IC50 is 10 to 100 nM in assay [1] and 100 to 1000 nM in assay [2].

As to `CCCC1CCCCN1C(=O)c1cccc(-c2cccc(-n3ncc(C(=O)O)c3C3CC3c3cccnn3)c2)c1` (centres unmarked) [Example 41, 1-[3′-(2-Propyl-piperidine-1-carbonyl)-biphenyl-3-yl]-5-(2-pyridazin-3-yl-cyclopropyl)-1H-pyrazole-4-carboxylic Acid], the IC50 in assay [1] and in assay [2] was 10 to 100 nM each time.

Consider `CCCC1CCCCN1C(=O)c1cccc(-c2cccc(-n3ncc(C(=O)O)c3C3CC3c3cn(C)nn3)c2)c1` (centres unmarked) [Example 42, 5-[2-(1-methyl-1H-1,2,3-triazol-4-yl)cyclopropyl]-1-{3-[3-(2-propylpiperidine-1-carbonyl)phenyl]phenyl}-1H-pyrazole-4-carboxylic Acid], for which the IC50 in assay [1] and in assay [2] was 10 to 100 nM in each case.

As to `CCC[C@@H]1CCCCN1C(=O)c1cccc(-c2cccc(-n3ncc(C(=O)O)c3[C@H]3C[C@@H]3c3cn(C)nn3)c2)c1` [Example 51g, 5-[(1S,2S)-2-(1-methyl-1H-1,2,3-triazol-4-yl)cyclopropyl]-1-(3-{3-[(2R)-2-propylpiperidine-1-carbonyl]phenyl}phenyl)-1H-pyrazole-4-carboxylic Acid], the IC50 in assay [1] was in the range of 100 to 1000 nM; in assay [2], 1000 to 10000 nM.

With `CCC[C@@H]1CCCCN1C(=O)c1cccc(-c2cccc(-n3ncc(C(=O)O)c3[C@@H]3C[C@H]3c3cn(C)nn3)c2)c1` [Example 51h, 5-[(1R,2R)-2-(1-methyl-1H-1,2,3-triazol-4-yl)cyclopropyl]-1-(3-{3-[(2R)-2-propylpiperidine-1-carbonyl]phenyl}phenyl)-1H-pyrazole-4-carboxylic Acid], the IC50 in assay [1] and in assay [2] was 10 to 100 nM throughout.

For the compound `CCC[C@@H]1CCCCN1C(=O)c1cccc(-c2cccc(-n3ncc(C(=O)O)c3C3CC3c3cn(C)nn3)c2)c1F` (stereo partly drawn) [Example 57, 1-(2′-Fluoro-3′-((R)-2-propylpiperidine-1-carbonyl)-[1,1′-biphenyl]-3-yl)-5-(2-(1-methyl-1H-1,2,3-triazol-4-yl)cyclopropyl)-1H-pyrazole-4-carboxylic Acid], the IC50 in assay [1] and in assay [2] was 10 to 100 nM each time.

As to `O=C(O)c1cnn(-c2cccc(-c3cccc(-n4ncc5c4CCC5)c3)c2)c1C1CC1` [Example 61, 5-Cyclopropyl-1-(3′-(5,6-dihydrocyclopenta[c]pyrazol-1(4H)-yl)-[1,1′-biphenyl]-3-yl)-1H-pyrazole-4-carboxylic Acid], the IC50 in assay [1] lay in the range of 100 to 1000 nM; in assay [2], 1000 to 10000 nM.

Take `O=C(O)c1cnn(-c2cccc(-c3cccc(-n4ncc5c4CCCC5)c3)c2)c1C1CC1` [Example 62, 5-cyclopropyl-1-(3′-(4,5,6,7-tetrahydro-1H-indazol-1-yl)-[1,1′-biphenyl]-3-yl)-1H-pyrazole-4-carboxylic Acid]: the IC50 lay in the range of 100 to 1000 nM in assay [1] and 1000 to 10000 nM in assay [2].

As to `CCC[C@@H]1CCCCN1C(=O)c1cccc(-c2cccc(-n3ncc(C(=O)O)c3C3CC3(F)F)c2)c1` (stereo partly drawn) [Example 67, 5-(2,2-Difluorocyclopropyl)-1-(3′-((R)-2-propylpiperidine-1-carbonyl)-[1,1′-biphenyl]-3-yl)-1H-pyrazole-4-carboxylic Acid], the IC50 in assay [1] lay within 10 to 100 nM; in assay [2] it was 100 to 1000 nM.

With `CC[C@@H]1CN(Cc2cccc(-c3cccc(-n4ncc(C(=O)O)c4C4CC4c4cn(C)nn4)c3)c2)Cc2ccccc2O1` (stereo partly drawn) [Example 129, 1-(3′-(((R)-2-ethyl-2,3-dihydrobenzo[f][1,4]oxazepin-4(5H)-yl)methyl)-[1,1′-biphenyl]-3-yl)-5-(2-(1-methyl-1H-1,2,3-triazol-4-yl)cyclopropyl)-1H-pyrazole-4-carboxylic Acid], the IC50 in assay [1] and in assay [2] was 10 to 100 nM throughout.

Consider `CCC[C@@H]1CCCCN1C(=O)c1cccc(-c2cc(C)cc(-n3ncc(C(=O)O)c3C3CC3c3cn(C)nn3)c2)c1` (stereo partly drawn) [Example 154, 5-(2-(1-Methyl-1H-1,2,3-triazol-4-yl)cyclopropyl)-1-(5-methyl-3′-((R)-2-propylpiperidine-1-carbonyl)-[1,1′-biphenyl]-3-yl)-1H-pyrazole-4-carboxylic Acid], for which the IC50 in assay [1] and in assay [2] was 10 to 100 nM each time.

Source of the values: patent US10364256B2 (GlaxoSmithKline Intellectual Property Development Limited, priority 2015, dated 2019).
